Patent publication US20110207694A1, “MAMMALIAN HYPOTHALAMIC NUTRIENT MODULATION OF GLUCOSE METABOLISM” (priority 2005, published 2011)

Tests used:
rats = test: Food intake after central (ICV) glucose or lactate; format: in vivo, rat; conditions: central administration
male Sprague-Dawley rats [1] = test: ICV infusion: plasma triglycerides and metabolites under basal and pancreatic clamp conditions; format: in vivo, rat
Source text: Animal preparation. We studied 10-week-old male Sprague-Dawley rats. Rats underwent stereotaxic surgery to indwell single catheters in the third cerebral ventricle {intracerebroventricular (ICV)(Obici et al., 2001) or bilateral catheters into the mediobasal hypothalamus (Lam et al., 2005c). One week later, we placed indwelling catheters in the internal jugular vein and carotid artery for sampling and infusion during the in vivo experiments (Obici et al., 2001). Recovery from surgery was monitored by measuring daily food intake and weight gain for 4-5 days after surgery.
Infusion protocols. The in vivo infusion experiments lasted a total of 360 min, and the experiments were carried out in rats that had their food removed ˜5 h before the experiments. Thus, at the time of the experiment, the rats are in post-absorptive state since their stomach should be completely emptied by 5 h fasting. […] This ICV glucose protocol physiologically elevate hypothalamic glucose concentration by ˜70% as previously described (Lam et al., 2005b) and is similar to that induced by a doubling of the circulating glucose levels (Lam et al., 2005b). During the ICV infusions, we monitored the plasma metabolite levels under pre-infused (0 min), basal (180-240 min) and pancreatic clamp (300-360 min) conditions. […] A basal insulin-pancreatic clamp was performed in the final 2 h (240-360 min) of the study as previously described (Lam et al., 2005b). In brief, a continuous infusion of insulin (1 mU/kg.min) and somatostatin (3 μg/kg.min) was administered, and a variable infusion of a 25% glucose solution was started and periodically adjusted to clamp and maintain the plasma glucose concentration at ˜8 mM. […] To examine the time-dependent effects of ICY glucose on plasma triglycerides, ICY (5 μl/h) 2 mM D-glucose or mannitol was administrated for 210 min and plasma triglyceride levels were monitored at 0, 20, 60, 120, 180, 210 min. […] Plasma triglycerides were monitored under basal, pancreatic clamp and tyloxapol-treated conditions. At the end of the infusion experiments, rats were anesthetized and tissue samples were freeze-clamped in situ with aluminum tongs pre-cooled in liquid nitrogen. All tissue samples were stored at −80° C. for subsequent analysis.
Biochemical analyses. Plasma glucose concentrations were measured by the glucose oxidase method (Glucose Analyzer II, Beckman Instruments, Inc., Fullerton, Calif.). […] FFA concentrations were determined by an enzyme assay in accordance with the manufacturer's specifications (Waco Pure Chemical Industries. Osaka. Japan). Plasma insulin concentrations (with rat and porcine insulin standards) were measured by radioimmunoassay (RIA). Plasma adiponectin concentrations were measured by RIA (Linco Inc., Austin, Tex., USA). Liver triglycerides were measured as described (Muse et al., 2004).
Calculations. Statistical analysis was done by unpaired Student's t test or analysis of variance as appropriate. Data are presented as means±SEM. All values were collapsed into a single value for each animal prior to the calculation of mean. The time period 180-240 min was averaged for the basal and the time period 300-360 min was averaged for the clamp conditions.

[2] = test system: Stearoyl-CoA Desaturase 1 (SCD1); test: Liver SCD1 activity, SCD1 mRNA and LCFA-CoA measurements; format: in vivo, rat
Experimental: Treatment with SCD1 ASO. Five and two days before the lipoprotein secretion studies, rats received a single intra-peritoneal injection of either SCD1 or scrambled (SCR) ASO (100 mg/kg of body weight). […] In a separate set of studies, rats received intra-portal injection of either SCD1 or SCR ASO (40 mg/kg of body weight) (Gutierrez-Juarez et al., 2006) three days before the lipoprotein secretion studies.
Liver LCFA-CoA measurements. The liver was sampled and the LCFA-CoAs were extracted from the liver and measured by high-performance liquid chromatography (HPLC) as previously described (Lam et al., 2005c).
Stearoyl-CoA Desaturase 1 (SCD1) activity. CD1 activity assays were performed essentially as described (Cohen et al., 2002) using 1-[^14C]-stearoyl-CoA as a substrate. At the end of the reaction incubation long-chain acyl CoAs (LC Acyl-CoAs) were extracted and fractionated by reverse-phase HPLC as previously reported (Lam et al., 2005c). Chromatographically resolved stearoyl CoA (C18:0) and oleyl-CoA (C18:1) peaks were collected and counted in a β-scintillation counter. Protein was assayed by the bicinchoninic acid (BCA) method using a commercially available kit (Pierce Biotechnology, Rockford, Ill.) according to the manufacturer's instructions.
Gene expression. Stearoyl-CoA Desaturasel (SCD1) mRNA was measured by quantitative real-time PCR. Briefly, total RNA was extracted from either liver or fat tissue using the Trizol reagent (Invitrogen, Carlsbad, Calif.) according to the manufacturer instructions. cDNA was then synthesized from 2 μg of total RNA using the Superscript® III First-Strand kit TM? (Invitrogen, Carlsbad, Calif.). Samples of RNA in which the reverse transcriptase was omitted (no RT controls) were also included. The cDNA and no RT controls were diluted 1:20 with PCR grade water and 2 μl from each sample was used for PCR in a total volume of 20 μl. The FastStart DNA Master SYBR Green I kit (Roche Applied Science, Indianapolis, Ind.) and a LightCycler® 2 instrument (Roche Applied Science, Indianapolis, Ind.) were used in all experiments. Either 18S mRNA expression was routinely measured for normalization purposes. The primer sequences used were as follows: 5′-[…]-3′ and 5′-[…]-3′ for Scd1; and 5′-[…]-3′ and 5′-[…]-3′ for ribosomal 18S. The mRNA copy number was calculated from standard curves obtained using cloned target templates (plasmid DNA) of known copy number for each gene of interest.

high fat-fed rats = test: ICV glucose or lactate in high fat-fed rats: plasma triglycerides and VLDL secretion; format: in vivo, rat
Experimental: High fat feeding. Male Sprague-Dawley rats were fed a highly palatable high fat diet for three days. These rats developed hyperinsulinemia and hepatic insulin resistance (Morgan et al., 2004). […] In a separate set of studies, lipoprotein secretion studies were performed at the beginning of the ICV infusions.

male Sprague-Dawley rats [3] = conditions: ICV 2 mM glucose, 5 μl/h (Lam et al., 2005b); cited from earlier work

## O=C[C@H](O)[C@@H](O)[C@H](O)[C@H](O)CO [glucose, D-glucose]
rats
  food intake overnight: inhibits food intake overnight
Male Sprague-Dawley rats [1]; ICV glucose, within 2 h, fraction
  decrease in plasma triglyceride levels: ⅓
Male Sprague-Dawley rats [1]; ICV glucose, within 3 h
  maximal hypolipidemic effect (decrease in plasma triglycerides): ~75%
Male Sprague-Dawley rats [1]; ICV infusion
  plasma free fatty acids levels: did not modify plasma fatty acids levels
Male Sprague-Dawley rats [1]; ICV infusion (glucose 2 mM, L-lactate 5 mM)
  plasma triglyceride levels: markedly decreased the circulating levels of triglycerides
[2]; ICV glucose
  decrease in hepatic expression and activity of SCD1: ~70%
  hepatic desaturation index (oleyl-CoA over stearoyl-CoA): reduction in the hepatic desaturation index
  hepatic oleyl-CoA levels: decreased the levels of oleyl-CoA
  hepatic stearoyl-CoA levels: increasing those of stearoyl-CoA
[2]; after 1 h (60 min) of ICV glucose infusion
  hepatic oleyl-CoA levels, desaturation index and SCD1 activity: Significant decreases in hepatic oleyl-CoA levels, desaturation index, and SCD1 activity
High fat-fed rats; HF rats, tyloxapol
  rate of appearance of VLDL-triglycerides in plasma: failed to decrease the rate of appearance of VLDL-triglycerides in plasma
High fat-fed rats; high fat-fed rats
  circulating levels of triglycerides: failed to decrease the circulating levels of triglycerides
Male Sprague-Dawley rats [3]
  rise in hypothalamic glucose levels: ~70%
